From patent US5876715A, “Antibodies that bind novel carbohydrate ligands (myelorollins) that cause E-selectin dependent cell rolling, and uses thereof” (The Biomembrane Institute, priority 1996, dated 1999)
Entries after “also recorded” stand apart in the source; their conditions may differ.

The substances below were run on E-selectin-expressing CHO cells (assay: Static adhesion assay using 96-well plates coated with gangliosides). Details: static conditions; ganglioside coated on 96-well plates (25 to 200 ng); [3H]thymidine-labeled cells; control with mAb E1C.
Type: cell-based, Chinese hamster
Excerpt: Adhesion of E-selectin-expressing CHO cells to various quantities of poly-LacNAc gangliosides coated on 96-well plates (Falcon, Becton-Dickinson, Lincoln Park, N.J.). Points represent mean experimental minus control value in the presence of mAb E1C, ±SE of triplicate experiments. .circle-solid.SLe^x -Le^x, Δ Fr. 10-1, .tangle-solidup. Fr. 10-2, .quadrature. Fr. 9, .smallcircle. Fr. 12-2.
Static adhesion assay using 96-well plates: Poly-LacNAc gangliosides with SLe^x -Le^x structure and Frs. 9, 10-1, 10-2 and 12-2, dissolved in 50% ethanol, were serially diluted in 96-well plates (the first well contained 200 ng), and plates were dried at 37° C. for 5 hr. Plates with similar serial dilutions of poly-LacNAc gangliosides were prepared for control cell adhesion in the presence of mAb E1C (see above). E-selectin-expressing CHO cells (Handa et al., Int. J. Oncol. 6:773-781 (1995)) were metabolically labeled with [^3 H] thymidine and incubated for 2 days. Cell suspension (2×10^6 per mL) was prepared by 2 mM EDTA treatment of cultured cells. A 50 μL aliquot of this cell suspension (containing 1×10^5 cells; approximately 5000 cpm) was added to each well and incubated for 1 hr. As a control, EDTA-harvested cells were washed with DMEM and incubated with mAb E1C on ice for 30 min, followed by preparation of cell suspension as above, but containing 10 μg mAb E1C per mL. Aliquots were added to each well and incubated as above. Cells were washed 3× with PBS by inversion of the plate on blotting paper. Adherent cell count as measured by ^3 H activity was determined.
Additional details of the experiment whose data are shown in FIGS. 1A and 1B are as follows: SLe^x -Le^x and poly-LacNAc gangliosides (Frs. 7, 9, 10-1, 10-2, 12-2, 13-1 and 14) dissolved in 50% ethanol were appropriately diluted and coated on wells of 96-well plates (amounts of 25 to 200 ng as shown on abscissa). Wells were dried at 37° C. for 5 hr. Two identical plates (1 and 2) were prepared in this way. To each well of plate 1, 50 μL aliquots of RPMI containing 1×10^5 E-selectin-expressing CHO cells metabolically labeled with [^3 H] thymidine were added. To each well of plate 2, aliquots of the same cell preparation preincubated with anti-E-selectin mAb E1C (10 μg Ig per mL) and suspended in RPMI containing mAb E1C were added. Plates 1 and 2 were incubated for 25 min. and washed with PBS. […] Each well was filled with 200 μL of PBS, carefully shaken, and plates were inverted on blotting paper for 10 min. All non-adherent cells were sedimented and absorbed on the blotting paper. Adherent cells remaining on wells were counted. Cell numbers (expressed on ordinate) were calculated based on measured radioactivity. Solid circle, SLe^x -Le^x without E1C (from plate 1). Open circle, SLe^x -Le^x with E1C (from plate 2). Adhesion values from various poly-LacNAc gangliosides with and without E1C were all near zero and cannot be distinguished on the graph.
Static adhesion assay using 96-well plates: Poly-LacNAc gangliosides with SLe^x -Le^x structure, and Fr. 9, 10-1, 10-2, and 12-2, dissolved in 50% ethanol, were serially diluted in 96-well plates (the first well contained […]), and plates were dried at 37° C. for 5 hr. Plates with similar serial dilutions of poly-LacNAc gangliosides were prepared for control cell adhesion in the presence of mAb E1C […] (see above). E-selectin-expressing CHO cells (Handa et al., 1995, Int. J. Oncol. 6:773-781) were metabolically labeled with [^3 H]thymidine and incubated for 2 days. Cell suspension (2×10^6 per mL) was prepared by 2 mM EDTA treatment of cultured cells. A 50 μL aliquot of this cell suspension (containing 1×10^5 cells; about 5000 cpm) was added to each well and incubated for 1 hr. As a control, EDTA-harvested cells were washed with DMEM and incubated with mAb E1C (10 μg/ml) on ice for 30 min, followed by preparation of cell suspension as above, but containing 10 μg E1C per mL. Aliquots were added to each well and incubated as above. […]

Row | Substance | adhesion of E-selectin-expressing CHO cells
1 | VIII^3 NeuAcIII^3 FucnLc8 Cer [Fr. 10-2] | little or no adhesion
2 | VIII^3 NeuAcV^3 FucnLc8 Cer [Fr. 10-1] | little or no adhesion
3 | VI^3 NeuAcV^3 FucIII^3 FucnLc6 Cer [SLe^x -Le^x, reference compound] | much stronger adhesion than myelorollin (Frs. 13-1 and 14); also recorded: capable of binding E-selectin expressing cells
4 | VI^3 NeuAcnLc6 Cer [Fr. 7] | little or no adhesion
5 | X^3 NeuAcVII^3 FucnLc10 Cer [Fr. 12-2] | little or no adhesion

Same assay, conditions: static conditions; ganglioside coated on 96-well plates (25 to 200 ng); [3H]thymidine-labeled cells; control with mAb E1C; listed as SLE^x -Le^x

Row | Substance | adhesion of E-selectin-expressing CHO cells
6 | VI^3 NeuAcV^3 FucIII^3 FucnLc6 Cer [SLe^x -Le^x, reference compound] | bound to E-selectin
